Assay results published in paper PMC10969504 (2024).

Tested on: ENR-Apt 6 (DNA, aptamer) GCGGCTGCTTACGGATAGAAGGCGGATGGAGAAATGAACCGGGGTGGTCCGTTGTCCATCCGTAAAGCCCAAGTC
Assay: graphene oxide fluorescence quenching/recovery, aptamer titrated
Details: aptamer 25-200 nM in ultrapure water; 20 μg/mL GO; 250 μM ENR solution added (1:1:1 v/v); apparent

- Kd: 0.03508 µM
Structure (SMILES): CCN1CCN(c2cc3c(cc2F)c(=O)c(C(=O)O)cn3C2CC2)CC1
